Measured values as given in US20230117034A1, “PYRAZOLOTRIAZINES” (Bayer Aktiengesellschaft, priority 2019, published 2023).

Assays:
[1] = test system: MDA-MB-231, human breast cancer cells; assay: Proliferation assay MDA-MB-231 (crystal violet, 4 days); format: cell-based; details: Homo sapiens, MDA-MB-231, 96 h, MDA-MB-231 cells, median, read-out: Prolif-MDA MB-231, IC50-[mol/l] (median)
Procedure, shortened: (§1)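 IC50 from a 4-parameter fit of crystal violet absorbance (595 nm), scaled between a day-0 plate (0%) and untreated wells (100%). Cells grown in 10% FCS medium were exposed to test substances at 0.01-10 µmol/L for 4 days, 0.1% DMSO final.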

[2] = test system: CAL-120, human breast adenocarcinoma cells; assay: Proliferation assay CAL-120 (crystal violet, 4 days); format: cell-based; details: Homo sapiens, CAL-120, 96 h, CAL-120 cells, median, read-out: Prolif-CAL-120, IC50-[mol/l] (median)
Procedure, shortened: as §1

SMILES | IC50 [1] [nM] | IC50 [2] [nM]
Brc1cnn2c(NCc3nc4ccccc4[nH]3)nc(N3C[C@H]4CCCN[C@H]4C3)nc12 [Example 199, N-[(1H-benzimidazol-2-yl)methyl]-8-bromo-2-[(4aR, 7aR)-octahydro-6H-pyrrolo[3,4-b]pyridin-6-yl]pyrazolo[1,5-a][1,3,5]triazin-4-amine] | 53.2 | 15.4
Fc1cccc2[nH]c(CNc3nc(N4CCNCC4)nc4c(C5CC5)cnn34)nc12 [Example 182, 8-cyclopropyl-N-[(4-fluoro-1H-benzimidazol-2-yl)methyl]-2-(piperazin-1-yl)pyrazolo[1,5-a][1,3,5]triazin-4-amine] | 10.2 | 3.7
CC1(O)CCN(c2nc(NCc3nc4ccccc4[nH]3)n3ncc(Br)c3n2)C1 (centres unmarked) [Example 225, 1-[4-(1H-benzimidazol-2-ylmethylamino)-8-bromo-pyrazolo[1,5-a][1,3,5]triazin-2-yl]-3-methyl-pyrrolidin-3-ol] | 123 | 62.7
Fc1ccc2[nH]c(CNc3nc(N4C[C@@H]5C[C@H]4CO5)nc4c(C5CC5)cnn34)nc2c1F [Example 173, 8-cyclopropyl-N-[(4,5-difluoro-1H-benzimidazol-2-yl)methyl]-2-[(1S,4S)-2-oxa-5-azabicyclo[2.2.1]heptan-5-yl]pyrazolo[1,5-a][1,3,5]triazin-4-amine] | 20.8 | 8.14
O[C@H]1C[C@@H](Nc2nc(NCc3nc4ccccc4[nH]3)n3ncc(Br)c3n2)C1 [Example 234, cis-3-[(4-{[(1H-benzimidazol-2-yl)methyl]amino}-8-bromopyrazolo[1,5-a][1,3,5]triazin-2-yl)amino]cyclobutan-1-ol] | 59.9 | 31.3
CC(C)(O)CNc1nc(NCc2nc3ccccc3[nH]2)n2ncc(Br)c2n1 [Example 229, 1-[(4-{[(1H-benzimidazol-2-yl)methyl]amino}-8-bromopyrazolo[1,5-a][1,3,5]triazin-2-yl)amino]-2-methylpropan-2-ol] | 42.8 | 39.4
CN1C[C@H]2C[C@@H]1CN2c1nc(NCc2nc3ccccc3[nH]2)n2ncc(Br)c2n1 [Example 218, N-[(1H-benzimidazol-2-yl)methyl]-8-bromo-2-[(1R,4R)-5-methyl-2,5-diazabicyclo[2.2.1]heptan-2-yl]pyrazolo[1,5-a][1,3,5]triazin-4-amine] | 35.7 | 21.1
CN1CC2CN(c3nc(NCc4nc5ccccc5[nH]4)n4ncc(Br)c4n3)CC2C1 (centres unmarked) [Example 240, N-(1H-benzimidazol-2-ylmethyl)-8-bromo-2-(2-methyl-1,3,3a,4,6,6a-hexahydropyrrolo[3,4-c]pyrrol-5-yl)pyrazolo[1,5-a][1,3,5]triazin-4-amine] | 38.6 | 23.7
Brc1cnn2c(NCc3nc4ccccc4[nH]3)nc(NCCN3CCCC3)nc12 [Example 235, N4-(1H-benzimidazol-2-ylmethyl)-8-bromo-N2-(2-pyrrolidin-1-ylethyl)pyrazolo[1,5-a][1,3,5]triazine-2,4-diamine] | 315 | 274
Fc1ccc2[nH]c(CNc3nc(N4C[C@@H]5C[C@H]4CO5)nc4c(C5CC5)cnn34)nc2c1 [Example 185, 8-cyclopropyl-N-[(5-fluoro-1H-benzimidazol-2-yl)methyl]-2-[(1S,4S)-2-oxa-5-azabicyclo[2.2.1]heptan-5-yl]pyrazolo[1,5-a][1,3,5]triazin-4-amine] | 58.8 | 18.6
O[C@H]1CCN(c2nc(NCc3nc4ccccc4[nH]3)n3ncc(Br)c3n2)C1 [Example 224, (3S)-1-(4-{[(1H-benzimidazol-2-yl)methyl]amino}-8-bromopyrazolo[1,5-a][1,3,5]triazin-2-yl)pyrrolidin-3-ol] | 128 | 57
COc1cccc2[nH]c(CNc3nc(N4C[C@@H]5CCCN[C@@H]5C4)nc4c(C5CC5)cnn34)nc12 [Example 214, 8-cyclopropyl-N-[(4-methoxy-1H-benzimidazol-2-yl)methyl]-2-[(4aS,7aS)-octahydro-6H-pyrrolo[3,4-b]pyridin-6-yl]pyrazolo[1,5-a][1,3,5]triazin-4-amine] | 17.7 | 6.2
OC[C@@H]1CCCCN1c1nc(NCc2nc3cc(F)ccc3[nH]2)n2ncc(C3CC3)c2n1 [Example 191, [(2S)-1-(8-cyclopropyl-4-{[(5-fluoro-1H-benzimidazol-2-yl)methyl]amino}pyrazolo[1,5-a][1,3,5]triazin-2-yl)piperidin-2-yl]methanol] | 9.68 | 1.16
Fc1ccc2[nH]c(CNc3nc(N4C[C@@H]5CCCN[C@@H]5C4)nc4c(C5CC5)cnn34)nc2c1F [Example 171, 8-cyclopropyl-N-[(4,5-difluoro-1H-benzimidazol-2-yl)methyl]-2-[(4aS,7aS)-octahydro-6H-pyrrolo[3,4-b]pyridin-6-yl]pyrazolo[1,5-a][1,3,5]triazin-4-amine] | 5.49 | 2.66
CN(CCN1CCCC1)c1nc(NCc2nc3ccccc3[nH]2)n2ncc(Br)c2n1 [Example 239, N4-(1H-benzimidazol-2-ylmethyl)-8-bromo-N2-methyl-N2-(2-pyrrolidin-1-ylethyl)pyrazolo[1,5-a][1,3,5]triazine-2,4-diamine] | 561 | 436
COc1ccc2[nH]c(CNc3nc(N4C[C@@H](C)N[C@@H](C)C4)nc4c(Br)cnn34)nc2c1 [Example 205, 8-bromo-2-[(3R,5S)-3,5-dimethylpiperazin-1-yl]-N-[(5-methoxy-1 H-benzimidazol-2-yl)methyl]pyrazolo[1,5-a][1,3,5]triazin-4-amine] | 4.2 | 1.73
Fc1cccc2[nH]c(CNc3nc(N4C[C@@H]5C[C@H]4CO5)nc4c(C5CC5)cnn34)nc12 [Example 183, 8-cyclopropyl-N-[(4-fluoro-1H-benzimidazol-2-yl)methyl]-2-[(1S,4S)-2-oxa-5-azabicyclo[2.2.1]heptan-5-yl]pyrazolo[1,5-a][1,3,5]triazin-4-amine] | 56 | 27.4
Brc1cnn2c(NCc3nc4ccccc4[nH]3)nc(N3CCC4(CCCN4)C3)nc12 (centres unmarked) [Example 215, N-(1H-benzimidazol-2-ylmethyl)-8-bromo-2-(1,7-diazaspiro[4.4]nonan-7-yl)pyrazolo[1,5-a][1,3,5]triazin-4-amine] | 129 | 34.3
Fc1ccc2[nH]c(CNc3nc(N4CCOCC4)nc4c(C5CC5)cnn34)nc2c1F [Example 172, 8-cyclopropyl-N-[(4,5-difluoro-1H-benzimidazol-2-yl)methyl]-2-(morpholin-4-yl)pyrazolo[1,5-a][1,3,5]triazin-4-amine] | 5.35 | 2.43
OC[C@@H]1CCCCN1c1nc(NCc2nc3c(F)c(F)ccc3[nH]2)n2ncc(C3CC3)c2n1 [Example 184, [(2S)-1-(8-cyclopropyl-4-{[(4,5-difluoro-1H-benzimidazol-2-yl)methyl]amino}pyrazolo[1,5-a][1,3,5]triazin-2-yl)piperidin-2-yl]methanol] | 10.3 | 9.27
COc1cccc2[nH]c(CNc3nc(N4C[C@@H](C)N[C@@H](C)C4)nc4c(C5CC5)cnn34)nc12 [Example 212, 8-cyclopropyl-2-[(3R,5S)-3,5-dimethylpiperazin-1-yl]-N-[(4-methoxy-1H-benzimidazol-2-yl)methyl]pyrazolo[1,5-a][1,3,5]triazin-4-amine] | 5.45 | 2.29
Fc1ccc2[nH]c(CNc3nc(N4CCNCC4)nc4c(C5CC5)cnn34)nc2c1F [Example 174, 8-cyclopropyl-N-[(4,5-difluoro-1H-benzimidazol-2-yl)methyl]-2-(piperazin-1-yl)pyrazolo[1,5-a][1,3,5]triazin-4-amine] | 2.19 | 1
CO[C@H]1CCN(c2nc(NCc3nc4ccccc4[nH]3)n3ncc(Br)c3n2)C1 [Example 222, N-[(1H-benzimidazol-2-yl)methyl]-8-bromo-2-[(3S)-3-methoxypyrrolidin-1-yl]pyrazolo[1,5-a][1,3,5]triazin-4-amine] | 182 | 107
Cc1ccc2[nH]c(CNc3nc(N4C[C@H]5C[C@@H]4CO5)nc4c(C5CC5)cnn34)nc2c1 [Example 196, 8-cyclopropyl-N-[(5-methyl-1H-benzimidazol-2-yl)methyl]-2-[(1R,4R)-2-oxa-5-azabicyclo[2.2.1]heptan-5-yl]pyrazolo[1,5-a][1,3,5]triazin-4-amine] | 12.9 | 8.05
CN1CC[C@@H]2CN(c3nc(NCc4nc5ccccc5[nH]4)n4ncc(Br)c4n3)C[C@@H]21 [Example 217, N-[(1H-benzimidazol-2-yl)methyl]-8-bromo-2-[(3aR,6aR)-1-methylhexahydropyrrolo[3,4-b]pyrrol-5 (1H)-yl]pyrazolo[1,5-a][1,3,5]triazin-4-amine] | 97.9 | 44.9
COc1cccc2[nH]c(CNc3nc(N4CCOCC4)nc4c(C5CC5)cnn34)nc12 [Example 213, 8-cyclopropyl-N-[(4-methoxy-1H-benzimidazol-2-yl)methyl]-2-morpholino-pyrazolo[1,5-a][1,3,5]triazin-4-amine] | 24.8 | 10.7
Cc1ccc2[nH]c(CNc3nc(N4CCN(C)CC4)nc4c(C5CC5)cnn34)nc2c1 [Example 210, 8-cyclopropyl-N-[(5-methyl-1H-benzimidazol-2-yl)methyl]-2-(4-methylpiperazin-1-yl)pyrazolo[1,5-a][1,3,5]triazin-4-amine] | 8.06 | 4.66
Fc1ccc2[nH]c(CNc3nc(N4CCOCC4)nc4c(C5CC5)cnn34)nc2c1 [Example 181, 8-cyclopropyl-N-[(5-fluoro-1H-benzimidazol-2-yl)methyl]-2-(morpholin-4-yl)pyrazolo[1,5-a][1,3,5]triazin-4-amine] | 9.29 | 6.1
